The values below come from patent US20260250318A1, “COMPOSITIONS AND METHODS FOR CROSSING THE BLOOD BRAIN BARRIER” (VOYAGER THERAPEUTICS, INC., priority 2022, published 2026).

The subject of one assay is brains, heart, liver, muscle, and DRG of the NHPs. Briefly: Maturation of TTM-001 and TTM-002 capsids, NGS enrichment in NHP tissues. The assay is classed as in vivo. The conditions noted are these: NGS fold-enrichment of matured AAV capsid variants; NHP brain, RNA; relative to AAV9 control. An outline of the steps:
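Variants carry mutations within and flanking the loop IV peptide insert: positions 450–466 were triplet-randomized, while positions 449–466 received low-frequency point mutations. The combined pool went into two NHPs, and each peptide was scored by NGS enrichment ratio against AAV9.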
For the sequence KTINGSGSPHSKAQKIST, the “Fold Enrichment relative to AAV9, Brain (NHP)” value is listed as 50.285 fold.

Take KTIPAIGSPHSKAQNQQT: the “Fold Enrichment relative to AAV9, Brain (NHP)” value turned out to be 52.346 fold.

Regarding KAINGSGSPHSKAHNQET, the “Fold Enrichment relative to AAV9, Brain (NHP)” value was found to be 52.973 fold.

For the sequence KTINKEGSPHSKAQNQQT, the “Fold Enrichment relative to AAV9, Brain (NHP)” value worked out at 53.006 fold.

The same assay, now with this note: NGS fold-enrichment, DRG of NHPs, relative to AAV9 control.
In the case of KTINGSGSPHSKAQKLNT, the “Fold Enrichment relative to AAV9, DRG (NHP)” value was 0.073 fold.

Turning to KTVNGSGSPHSKAQNLQA, the “Fold Enrichment relative to AAV9, DRG (NHP)” value is on record as 0.000 fold.

Turning to KTFNGSGSPHNKAQNHQT, the “Fold Enrichment relative to AAV9, DRG (NHP)” value came to 0.000 fold.

Take KTITGSGSPHSKAQTQLT: the “Fold Enrichment relative to AAV9, DRG (NHP)” value amounted to 0.160 fold.

The assay is the same for the next values; noted with them: NGS fold-enrichment, RNA, brain of NHPs, relative to AAV9 control.
For KTINGSGSPHSKAQKLNT, the “Fold Enrichment relative to AAV9, Brain (NHP)” value is given as 67.782 fold.

Turning to KTVNGSGSPHSKAQNLQA, the “Fold Enrichment relative to AAV9, Brain (NHP)” value turned out to be 66.379 fold.

Consider KTFNGSGSPHNKAQNHQT, for which the “Fold Enrichment relative to AAV9, Brain (NHP)” value was 64.060 fold.

With KTITGSGSPHSKAQTQLT, the “Fold Enrichment relative to AAV9, Brain (NHP)” value was 60.846 fold.

The same assay, now with this note: NGS fold-enrichment, heart of NHPs, relative to AAV9 control.
As for KTINGSGSPHSKAQKLNT, the “Fold Enrichment relative to AAV9, Heart (NHP)” value is 0.092 fold.

With KTVNGSGSPHSKAQNLQA, the “Fold Enrichment relative to AAV9, Heart (NHP)” value was determined as 0.000 fold.

Turning to KTFNGSGSPHNKAQNHQT, the “Fold Enrichment relative to AAV9, Heart (NHP)” value amounted to 0.000 fold.

In the case of KTITGSGSPHSKAQTQLT, the “Fold Enrichment relative to AAV9, Heart (NHP)” value is 8.992 fold.

The same assay, now with this note: NGS fold-enrichment, liver DNA of NHPs, relative to AAV9 control.
Regarding KTINGSGSPHSKAQKLNT, the “Fold Enrichment relative to AAV9, Liver DNA (NHP)” value amounted to 0.201 fold.

As for KTVNGSGSPHSKAQNLQA, the “Fold Enrichment relative to AAV9, Liver DNA (NHP)” value is on record as 0.132 fold.

KTFNGSGSPHNKAQNHQT: the “Fold Enrichment relative to AAV9, Liver DNA (NHP)” value is 0.317 fold.

KTITGSGSPHSKAQTQLT: the “Fold Enrichment relative to AAV9, Liver DNA (NHP)” value was 0.000 fold.

Still in this assay, the particulars now being: NGS fold-enrichment, liver RNA of NHPs, relative to AAV9 control.
On to KTINGSGSPHSKAQKLNT, for which the “Fold Enrichment relative to AAV9, Liver RNA (NHP)” value was determined as 1.232 fold.

Regarding KTVNGSGSPHSKAQNLQA, the “Fold Enrichment relative to AAV9, Liver RNA (NHP)” value worked out at 0.000 fold.

As to KTFNGSGSPHNKAQNHQT, the “Fold Enrichment relative to AAV9, Liver RNA (NHP)” value is reported as 0.094 fold.

On to KTITGSGSPHSKAQTQLT, for which the “Fold Enrichment relative to AAV9, Liver RNA (NHP)” value amounted to 0.000 fold.

Still in this assay, the particulars now being: NGS fold-enrichment, muscle of NHPs, relative to AAV9 control.
For KTINGSGSPHSKAQKLNT, the “Fold Enrichment relative to AAV9, Muscle (NHP)” value worked out at 0.000 fold.

On to KTVNGSGSPHSKAQNLQA, for which the “Fold Enrichment relative to AAV9, Muscle (NHP)” value is 0.000 fold.

As to KTFNGSGSPHNKAQNHQT, the “Fold Enrichment relative to AAV9, Muscle (NHP)” value came out at 0.035 fold.

In the case of KTITGSGSPHSKAQTQLT, the “Fold Enrichment relative to AAV9, Muscle (NHP)” value was found to be 0.000 fold.

The same assay, now with this note: NHP DRG; relative to AAV9 control.
For KTINGSGSPHSKAQKIST, the “Fold Enrichment relative to AAV9, DRG (NHP)” value is given as 0.000 fold.

Take KTIPAIGSPHSKAQNQQT: the “Fold Enrichment relative to AAV9, DRG (NHP)” value was 0.000 fold.

Consider KAINGSGSPHSKAHNQET, for which the “Fold Enrichment relative to AAV9, DRG (NHP)” value came out at 0.000 fold.

As for KTINKEGSPHSKAQNQQT, the “Fold Enrichment relative to AAV9, DRG (NHP)” value turned out to be 0.000 fold.

The assay is the same for the next values; noted with them: NHP heart; relative to AAV9 control.
On to KTINGSGSPHSKAQKIST, for which the “Fold Enrichment relative to AAV9, Heart (NHP)” value amounted to 0.000 fold.

Turning to KTIPAIGSPHSKAQNQQT, the “Fold Enrichment relative to AAV9, Heart (NHP)” value worked out at 0.009 fold.

Consider KAINGSGSPHSKAHNQET, for which the “Fold Enrichment relative to AAV9, Heart (NHP)” value turned out to be 0.030 fold.

Take KTINKEGSPHSKAQNQQT: the “Fold Enrichment relative to AAV9, Heart (NHP)” value was determined as 0.029 fold.

Still in this assay, the particulars now being: NHP liver, DNA; relative to AAV9 control.
For the sequence KTINGSGSPHSKAQKIST, the “Fold Enrichment relative to AAV9, Liver DNA (NHP)” value amounted to 0.302 fold.

In the case of KTIPAIGSPHSKAQNQQT, the “Fold Enrichment relative to AAV9, Liver DNA (NHP)” value is on record as 0.134 fold.

Take KAINGSGSPHSKAHNQET: the “Fold Enrichment relative to AAV9, Liver DNA (NHP)” value is 0.058 fold.

Take KTINKEGSPHSKAQNQQT: the “Fold Enrichment relative to AAV9, Liver DNA (NHP)” value turned out to be 0.111 fold.

The assay is the same for the next values; noted with them: NHP liver, RNA; relative to AAV9 control.
Consider KTINGSGSPHSKAQKIST, for which the “Fold Enrichment relative to AAV9, Liver RNA (NHP)” value was 0.108 fold.

Take KTIPAIGSPHSKAQNQQT: the “Fold Enrichment relative to AAV9, Liver RNA (NHP)” value worked out at 0.034 fold.

In the case of KAINGSGSPHSKAHNQET, the “Fold Enrichment relative to AAV9, Liver RNA (NHP)” value was found to be 0.035 fold.

Take KTINKEGSPHSKAQNQQT: the “Fold Enrichment relative to AAV9, Liver RNA (NHP)” value is on record as 0.177 fold.

The assay is the same for the next values; noted with them: NHP muscle; relative to AAV9 control.
Turning to KTINGSGSPHSKAQKIST, the “Fold Enrichment relative to AAV9, Muscle (NHP)” value was 0.088 fold.

Turning to KTIPAIGSPHSKAQNQQT, the “Fold Enrichment relative to AAV9, Muscle (NHP)” value was found to be 0.000 fold.

Regarding KAINGSGSPHSKAHNQET, the “Fold Enrichment relative to AAV9, Muscle (NHP)” value worked out at 0.000 fold.

For KTINKEGSPHSKAQNQQT, the “Fold Enrichment relative to AAV9, Muscle (NHP)” value turned out to be 0.000 fold.

In the next assay the test system is brain. Briefly: Matured TTM-001 and TTM-002 variants, NGS enrichment in mouse brain. The following applies: NGS fold-enrichment, brain of mice, relative to AAV9 control. The class given is in vivo, mice.
Consider KTINGSGSPHSKAQKLNT, for which the “Fold Enrichment relative to AAV9, Brain (Mouse)” value is listed as 68.637 fold.

Take KTVNGSGSPHSKAQNLQA: the “Fold Enrichment relative to AAV9, Brain (Mouse)” value is 50.934 fold.

Take KTFNGSGSPHNKAQNHQT: the “Fold Enrichment relative to AAV9, Brain (Mouse)” value was found to be 67.757 fold.

Consider KTITGSGSPHSKAQTQLT, for which the “Fold Enrichment relative to AAV9, Brain (Mouse)” value was 55.640 fold.

Still in this assay, the particulars now being: mouse brain; relative to AAV9 control.
With KTINGSGSPHSKAQKIST, the “Fold Enrichment relative to AAV9, Brain (Mouse)” value is reported as 51.115 fold.

As for KTIPAIGSPHSKAQNQQT, the “Fold Enrichment relative to AAV9, Brain (Mouse)” value came out at 51.949 fold.

Turning to KAINGSGSPHSKAHNQET, the “Fold Enrichment relative to AAV9, Brain (Mouse)” value came to 71.809 fold.

With KTINKEGSPHSKAQNQQT, the “Fold Enrichment relative to AAV9, Brain (Mouse)” value came out at 64.520 fold.
